PubChem BioAssay (NCI)
“And” between values parts separate entries of the source, which are not always exact repeats. Equal values may be shown once.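 Where inhibition never reached the appropriate level, the endpoint shown equals the highest concentration tested. Otherwise, values were interpolated linearly from a five-concentration, 48-hour dose response in 96-well plates. The concentration for 50% growth inhibition is given as GI50. TGI marks complete inhibition of growth.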

Experiments:
Assay in all cases: NCI anticancer screen, dose series, 48 h
[1] = system: M14 melanoma
[2] = system: OVCAR-4 ovarian
[3] = system: OVCAR-8 ovarian
[4] = system: COLO 205 colon
[5] = system: EKVX NSCLC
[6] = system: HOP-62 NSCLC
[7] = system: HCT-15 colon
[8] = system: CCRF-CEM leukemia
[9] = system: IGROV1 ovarian
[10] = system: MALME-3M melanoma

SMILES	GI50 [1]	TGI [1]	GI50 [2]	TGI [2]	GI50 [3]	TGI [3]	GI50 [4]	TGI [4]	GI50 [5]	TGI [5]	GI50 [6]	TGI [6]	GI50 [7]	TGI [7]	GI50 [8]	TGI [8]	GI50 [9]	TGI [9]	GI50 [10]	TGI [10]
CCN1CCN(CCOc2ccc(CNc3ccc4nc(CCC5CCCCC5)[nH]c4c3)cc2)CC1	1.68 µM	3.29 µM	2.61 µM	11.1 µM	2.45 µM	7.04 µM	1.76 µM	3.52 µM	2.25 µM	9.15 µM	1.99 µM	4.63 µM	1.43 µM	3.41 µM	1.61 µM	8.75 µM	2.83 µM	11 µM	1.57 µM	3.08 µM
CCCCCCCCCCCCCCCCOC(=O)C(C(=O)OCCCCCCCCCCCCCCCC)[N+](C)(C)CCOC(C)=O	–	38.5 µM	–	32.4 µM	–	37.3 µM	–	36 µM	–	43.7 µM	–	25.8 µM	–	46.1 µM	–	28.6 µM	–	13.7 µM	–	41.2 µM
CCSC1(SCC)CCN(C=NC(C)(C)C)C1	–	> 100 µM	–	> 100 µM	–	> 100 µM	–	> 100 µM	–	> 100 µM	–	> 100 µM	–	> 100 µM	–	> 100 µM	–	> 100 µM	–	> 100 µM
CC1=C(N2CC2)C(=O)C(CO)=C(N2CC2)C1=O	0.0162 µM	0.119 µM and 0.0522 µM	0.195 µM	0.904 µM and 0.587 µM	0.0145 µM	0.0701 µM and 0.0799 µM	0.135 µM and 0.084 µM	0.29 µM and 0.23 µM	–	0.99 µM	0.0219 µM	0.0569 µM	0.02 µM	0.584 µM	0.000612 µM	–	0.0168 µM	0.0703 µM and 0.0518 µM	–	0.116 µM
COC(=O)[C@]12CC[C@@H](C)[C@H](C)[C@@H]1C1=CC[C@@H]3[C@@]4(C)C[C@@H](OC(=O)c5ccco5)[C@H](O)[C@@](C)(CO)[C@@H]4[C@H](O)C[C@@]3(C)[C@]1(C)CC2	2.26 µM	4.74 µM	3.41 µM	13.5 µM	3.37 µM	10.4 µM	1.82 µM	3.44 µM	2.78 µM	8.67 µM	2.03 µM	4 µM	1.84 µM	3.89 µM	2.41 µM	5.77 µM	2.42 µM	6.33 µM	2.15 µM	4.3 µM
C=C1C(=O)OC2CCCCC3OC3C12 (configuration not stated)	–	20.4 µM	–	28.7 µM	–	32.4 µM	–	11.5 µM	–	34.6 µM	–	41.3 µM	–	19.9 µM	–	20.2 µM	–	33.4 µM	–	23.1 µM
COc1cc2c(cc1OC)C(CCc1ccc(Cl)cc1)N(C)CC2 (configuration not stated)	17.3 µM	37.7 µM	33.9 µM	> 100 µM	32.6 µM	> 100 µM	17.6 µM	34.6 µM	16.7 µM	81 µM	32.9 µM	> 100 µM	30.2 µM	> 100 µM	29.1 µM	> 100 µM	36.9 µM	> 100 µM	21.6 µM	46.5 µM
O=C1Cc2cc(CCn3ccnc3)c(Cl)cc2N1	3.46 µM	39.8 µM	45 µM	> 100 µM	24.1 µM	> 100 µM	15.1 µM	> 100 µM	0.613 µM	> 100 µM	33.2 µM	> 100 µM	7.07 µM	> 100 µM	3.37 µM	> 100 µM	> 100 µM	> 100 µM	79.5 µM	> 100 µM
CCOc1ccc(Cc2nccc3cc(OCC)c(OCC)cc23)cc1OCC	9.41 µM	23.5 µM	9.74 µM	26 µM	5.33 µM	31.1 µM	4.28 µM	19 µM	3.64 µM	27.1 µM	3.01 µM	20.9 µM	10.2 µM	29.8 µM	8.45 µM	65.1 µM	2.39 µM	12.7 µM	8.76 µM	26 µM
Oc1nc(NCCc2ccccc2)sc1/C=C1\C=Nc2ncccc21	3.72 µM and 3.49 µM	12.5 µM and 10.4 µM	2.95 µM and 3.69 µM	11.7 µM and 18.7 µM	2.91 µM and 3.12 µM	13.4 µM and 14.8 µM	1.93 µM and 2.96 µM	5.95 µM and 11 µM	3.18 µM and 3.52 µM	29.6 µM and 26.9 µM	2.47 µM and 3.43 µM	7.86 µM and 9.47 µM	2.63 µM and 3.15 µM	13.9 µM and 33.5 µM	3.31 µM and 2.42 µM	13.9 µM and 7.8 µM	2.51 µM and 3.03 µM	18 µM and 50.4 µM	3.28 µM	8.93 µM
O=C(CC(=O)N1N=C(n2ccc3ccccc32)CC1c1ccccc1)Nc1cccc(Cl)c1 (configuration not stated)	–	> 100 µM	–	> 100 µM	–	> 100 µM	–	> 100 µM	–	> 100 µM	–	> 100 µM	–	> 100 µM	–	> 100 µM	–	> 100 µM	–	> 100 µM
Cc1ccc(/C=C(\C#N)n2nnc3cc(Cl)c(Cl)cc32)cc1	2.18 µM	5.66 µM	2.69 µM	81.5 µM	2.87 µM	> 100 µM	2.62 µM	7.16 µM	3.48 µM	> 100 µM	2.6 µM	> 100 µM	1.73 µM	5.99 µM	1.32 µM	> 100 µM	2.26 µM	6.48 µM	2.18 µM	6.21 µM
CCCNc1nc(N(C)O)nc(N(C)O)n1	2.05 µM	> 29.4 µM	2.48 µM	> 100 µM	2.45 µM	> 100 µM	2.23 µM	32.2 µM	2.04 µM	> 100 µM	1.82 µM	97.6 µM	0.504 µM	> 100 µM	0.432 µM	5.46 µM	2.13 µM	14.6 µM	2.96 µM	32.5 µM
CC1C2Cc3ccc(O)cc3C1(C)CCN2C (configuration not stated)	–	> 100 µM	–	> 100 µM	–	> 100 µM	–	> 100 µM	–	> 100 µM	–	> 100 µM	–	> 100 µM	–	> 100 µM	–	> 100 µM	–	> 100 µM
OC1CN(OC/C=C/c2ccccc2)CC(O)C1O (configuration not stated)	–	> 100 µM	–	> 100 µM	–	> 100 µM	–	> 100 µM	–	> 100 µM	–	> 100 µM	–	> 100 µM	–	> 100 µM	–	> 100 µM	–	> 100 µM
